Data published in US20230066011A1, “PYRROLOPYRIMIDINE DERIVATIVE, AND PHARMACEUTICAL COMPOSITION FOR PREVENTING OR TREATING PROTEIN KINASE-RELATED DISEASE COMPRISING SAME AS ACTIVE INGREDIENT” (VORONOI CO., LTD., priority 2019, published 2023).

How the values were obtained:
human GST-CLK1 = target: T1, human GST-CLK1 (Homo sapiens, UniProt P49759); assay: GST-CLK1 enzyme inhibition, ADP-Glo kinase assay; type: biochemical; conditions: ATP 10 μM, GST-CLK1 129-end
T1 construct: purified human GST-CLK1 (129-end, SignalChem) enzyme; purchased SignalChem
Method in brief: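 ADP-Glo luminescence read-out, relative to untreated solvent control, gave IC50 (nM) from triplicate data sets. Reactions ran an hour at 25° C with 3 ng GST-CLK1 (residues 129-end), 10 μM ATP and specific substrate in Tris-HCl pH 7.4 buffer with MgCl2, BSA and DTT.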

human DYRK1A and tau = assay: Inhibition of tau phosphorylation, ClariCELL Kinase Cell-Based Assay, HEK 293 cells expressing human DYRK1A and tau
Protocol: An inhibitory effect on tau phosphorylation was determined using the ClariCELL™ Kinase Cell-Based Assay service (commercially available from CamaBio USA, Inc.). Human embryonic kidney (HEK 293) cells temporarily expressing human DYRK1A and tau were exposed to the compound, and then lysed to release cell proteins. In this case, the released tau was captured on a plate, and a degree of phosphorylation was quantified by ELISA using a tau phosphorylation-specific antibody.

human GST-DYRK1A = target: T2, human GST-DYRK1A (Homo sapiens, UniProt Q13627); assay: GST-DYRK1A enzyme inhibition, ADP-Glo kinase assay; type: biochemical; conditions: ATP 10 μM, GST-DYRK1A full length, read-out: DYRK1 IC50
T2 construct: purified human GST-DYRK1A (full length, Thermo Scientifics) enzyme; purchased Thermo Scientifics
Method in brief: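 Full-length enzyme (10 ng) was incubated with 10 μM ATP and a specific substrate for 1 h at 25 °C in 40 mM Tris-HCl pH 7.4, 20 mM MgCl2, 0.5 mg/mL BSA, 50 μM DTT. Luminescence was read against a solvent control, and IC50 values were derived from 3 data sets.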

LRRK2 (G2019S) = LRRK2 (G2019S) (Homo sapiens, UniProt Q5S007, G2019S); assay: LRRK2 G2019S enzyme inhibition, ADP-Glo kinase assay; type: biochemical; design: purchased SignalChem L10-12GG; conditions: ATP 25 μM
Method in brief: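 IC50 derived from luminescent ADP-Glo readout against untreated solvent control, twelve final compound concentrations from 50 μM downward. Reaction: recombinant human LRRK2 G2019S enzyme, 25 μM ATP, substrate, pH 7.4 Tris buffer with MgCl2/BSA/DTT, 25° C. for 2 hours.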

LRRK2 = LRRK2 (Homo sapiens, UniProt Q5S007); assay: LRRK2 enzyme inhibition, ADP-Glo kinase assay; type: biochemical; design: purchased Invitrogen PR8604B; conditions: ATP 10 μM
Method in brief: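 ADP-Glo luminescent read-out of ADP formed by purified human LRRK2 enzyme (25 ng), 10 μM ATP, 0.2 μg substrate, 25° C for 2 h, Tris-HCl pH 7.4 buffer with MgCl2, BSA, DTT. Inhibition versus untreated solvent control over twelve final concentrations (50 μM downward) gives IC50.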

LRRK2, sequence (Q5S007 970-2527 limits assumed): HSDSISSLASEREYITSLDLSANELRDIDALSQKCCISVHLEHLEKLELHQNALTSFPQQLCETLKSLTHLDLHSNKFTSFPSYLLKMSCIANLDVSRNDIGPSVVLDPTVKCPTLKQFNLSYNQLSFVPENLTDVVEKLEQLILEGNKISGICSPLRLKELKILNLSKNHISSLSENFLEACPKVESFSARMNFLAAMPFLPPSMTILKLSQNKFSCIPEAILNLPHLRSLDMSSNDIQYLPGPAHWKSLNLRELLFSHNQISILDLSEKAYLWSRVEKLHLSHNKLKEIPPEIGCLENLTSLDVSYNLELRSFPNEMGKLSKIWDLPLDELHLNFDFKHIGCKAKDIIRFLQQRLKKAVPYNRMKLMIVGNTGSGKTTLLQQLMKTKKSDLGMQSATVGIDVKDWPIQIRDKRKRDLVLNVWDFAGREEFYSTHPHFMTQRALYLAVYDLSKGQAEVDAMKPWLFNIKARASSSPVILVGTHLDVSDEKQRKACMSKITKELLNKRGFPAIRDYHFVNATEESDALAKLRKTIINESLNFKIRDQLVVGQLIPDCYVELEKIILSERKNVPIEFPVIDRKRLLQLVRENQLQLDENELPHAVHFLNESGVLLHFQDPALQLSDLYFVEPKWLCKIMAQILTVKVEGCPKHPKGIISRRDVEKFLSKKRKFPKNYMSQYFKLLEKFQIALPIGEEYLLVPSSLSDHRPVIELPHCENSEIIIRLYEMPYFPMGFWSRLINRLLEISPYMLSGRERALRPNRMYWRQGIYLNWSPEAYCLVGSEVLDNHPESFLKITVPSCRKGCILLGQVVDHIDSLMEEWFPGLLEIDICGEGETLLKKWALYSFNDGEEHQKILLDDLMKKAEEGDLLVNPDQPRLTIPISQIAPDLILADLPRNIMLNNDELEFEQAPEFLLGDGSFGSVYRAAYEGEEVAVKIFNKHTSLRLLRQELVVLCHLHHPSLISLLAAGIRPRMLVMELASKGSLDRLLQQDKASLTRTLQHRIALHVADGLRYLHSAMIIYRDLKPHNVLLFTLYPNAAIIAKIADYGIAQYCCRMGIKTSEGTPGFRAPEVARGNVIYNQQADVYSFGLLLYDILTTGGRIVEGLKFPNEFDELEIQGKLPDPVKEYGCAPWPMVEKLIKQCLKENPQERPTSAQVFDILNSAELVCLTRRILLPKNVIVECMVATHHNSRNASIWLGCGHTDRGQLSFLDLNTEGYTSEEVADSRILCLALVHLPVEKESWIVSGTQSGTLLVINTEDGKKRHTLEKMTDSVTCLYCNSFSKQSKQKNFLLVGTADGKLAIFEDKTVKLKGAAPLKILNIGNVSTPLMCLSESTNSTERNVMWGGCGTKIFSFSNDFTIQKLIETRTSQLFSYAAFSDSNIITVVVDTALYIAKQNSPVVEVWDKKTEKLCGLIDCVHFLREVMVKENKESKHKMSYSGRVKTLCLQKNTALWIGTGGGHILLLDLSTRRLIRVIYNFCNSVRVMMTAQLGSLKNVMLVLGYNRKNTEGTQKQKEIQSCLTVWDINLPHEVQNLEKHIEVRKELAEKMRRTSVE
LRRK2 (G2019S), sequence (Q5S007 970-2527 G2019S limits assumed): as the sequence (Q5S007 970-2527 limits assumed) above, with G1050S counted along it
T1 sequence (P49759 129-484 limits assumed): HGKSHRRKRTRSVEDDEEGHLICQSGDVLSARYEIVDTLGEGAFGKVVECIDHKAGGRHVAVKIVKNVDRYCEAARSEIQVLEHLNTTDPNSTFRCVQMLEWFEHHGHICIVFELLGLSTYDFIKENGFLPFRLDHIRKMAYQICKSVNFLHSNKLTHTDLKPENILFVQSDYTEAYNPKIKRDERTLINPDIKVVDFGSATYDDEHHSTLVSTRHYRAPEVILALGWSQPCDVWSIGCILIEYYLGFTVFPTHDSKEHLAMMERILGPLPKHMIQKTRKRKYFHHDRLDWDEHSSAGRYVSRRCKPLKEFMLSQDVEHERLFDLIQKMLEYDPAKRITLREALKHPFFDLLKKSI

| IC50 (human GST-CLK1) [nM] | IC50 (human GST-DYRK1A) [nM] | IC50 (LRRK2 (G2019S)) [nM] | IC50 (LRRK2) [nM] | Structure (SMILES) | inhibition at 1 µM (human DYRK1A and tau; HEK293, read-out: % inhibition at 1 uM, tau phosphorylation, compound 1 uM) [%] | inhibition at 0.25 µM (human DYRK1A and tau; HEK293, tau phosphorylation, compound 0.25 uM) [%] | inhibition at 0.5 µM (human DYRK1A and tau; HEK293, tau phosphorylation, compound 0.5 uM) [%] |
| --- | --- | --- | --- | --- | --- | --- | --- |
| < 100 | 301 to 1000 | – | – | N#Cc1c[nH]c2nc(Nc3ccc(C(=O)N4CCN(C5COC5)CC4)c4c3OCCO4)nc(N[C@H]3CCOC3)c12 [Example 315, (S)-2-((8-(4-(oxetan-3-yl)piperazine-1-carbonyl)-2,3-dihydrobenzo[b] [1,4]dioxin-5-yl)amino)-4-((tetrahydrofuran-3-yl)amino)-7H-pyrrolo[2,3-d]pyrimidine-5-carbonitrile] | 16.6 | -1.8 | 8.4 |
| < 100 | 101 to 300 | < 100 | < 100 | CCNc1nc(Nc2ccc(C(=O)N3CCC(N4CCOCC4)CC3)c3c2OCCO3)nc2[nH]cc(C(F)(F)F)c12 [Example 363, (8-((4-(ethylamino)-5-(trifluoromethyl)-7H-pyrrolo[2,3-d]pyrimidin-2-yl)amino)-2,3-dihydro-benzo[b][1,4]dioxin-5-yl)(4-morpholino-piperidin-1-yl)methanone] | – | – | – |
| 301 to 1000 | 301 to 1000 | < 100 | < 100 | C=CCNc1nc(Nc2ccc(S(=O)(=O)N3CCOCC3)cc2OC)nc2[nH]ccc12 [Example 246, N4-allyl-N2-(2-methoxy-4-(morpholinosulfonyl)phenyl)-7H-pyrrolo[2,3-d]pyrimidine-2,4-diamine] | – | – | – |
| < 100 | < 100 | < 100 | < 100 | CCCNc1nc(Nc2ccc(C(=O)N3CCC(N4CCOCC4)CC3)c3c2OCCO3)nc2[nH]cc(C(F)(F)F)c12 [Example 364, (4-morpholino-piperidin-1-yl)(8-((4-(propylamino)-5-(trifluoromethyl)-7H-pyrrolo[2,3-d]pyrimidin-2-yl)amino)-2,3-dihydrobenzo[b] [1,4]dioxin-5-yl)methanone] | – | – | – |
| 301 to 1000 | 301 to 1000 | 301 to 1000 | 301 to 1000 | COCCNc1nc(Nc2ccc(C(=O)N3CCOCC3)c3c2OCCO3)nc2[nH]cc(C(N)=O)c12 [Example 235, 4-((2-methoxyethyl)amino)-2-((8-(morpholine-4-carbonyl)-2,3-dihydrobenzo[b][1,4]dioxin-5-yl)amino)-7H-pyrrolo[2,3-d]pyrimidine-5-carboxamide] | – | – | – |
| 301 to 1000 | 301 to 1000 | < 100 | < 100 | C=CCNc1nc(Nc2ccc(S(=O)(=O)N3CCC(N4CCOCC4)CC3)cc2OC)nc2[nH]ccc12 [Example 247, N4-allyl-N2-(2-methoxy-4-((4-morpholinopiperidin-1-yl)sulfonyl)phenyl)-7H-pyrrolo[2,3-d]pyrimidine-2,4-diamine] | – | – | – |
| < 100 | 101 to 300 | < 100 | < 100 | O=C(c1ccc(Nc2nc(NC3CC3)c3c(C(F)(F)F)c[nH]c3n2)c2c1OCCO2)N1CCC(N2CCOCC2)CC1 [Example 367, (8-((4-(cyclopropyl-amino)-5-(trifluoromethyl)-7H-pyrrolo[2,3-d]pyrimidin-2-yl)amino)-2,3-dihydrobenzo[b] [1,4]dioxin-5-yl)(4-morpho-linopiperidin-1-yl)methanone] | – | – | – |

The next lines start with the molecule.

| Structure (SMILES) | IC50 (human GST-CLK1) [nM] | IC50 (human GST-DYRK1A) [nM] | IC50 (LRRK2 (G2019S)) [nM] | IC50 (LRRK2) [nM] | inhibition at 1 µM (human DYRK1A and tau; HEK293, read-out: % inhibition at 1 uM, tau phosphorylation, compound 1 uM) [%] | inhibition at 0.25 µM (human DYRK1A and tau; HEK293, tau phosphorylation, compound 0.25 uM) [%] | inhibition at 0.5 µM (human DYRK1A and tau; HEK293, tau phosphorylation, compound 0.5 uM) [%] |
| --- | --- | --- | --- | --- | --- | --- | --- |
| COc1cc(S(C)(=O)=O)ccc1Nc1nc(NC2CC2)c2c(C#N)c[nH]c2n1 [Example 104, 4-(cyclopropylamino)-2-((2-methoxy-4-(methylsulfonyl)phenyl)amino)-7H-pyrrolo[2,3-d]pyrimidine-5-carbonitrile] | 101 to 300 | 301 to 1000 | < 100 | < 100 | – | – | – |
| CCCNc1nc(Nc2ccc(C(=O)N3CCOCC3)c3c2OCCO3)nc2[nH]cc(C#N)c12 [Example 120, 2-((8-(morpholine-4-carbonyl)-2,3-dihydrobenzo[b][1,4]dioxin-5-yl)amino)-4-(propylamino)-7H-pyrrolo[2,3-d]pyrimidine-5-carbonitrile] | < 100 | 101 to 300 | < 100 | < 100 | – | – | – |
| N#Cc1c[nH]c2nc(Nc3ccc(C(=O)N4CCC(N5CCOCC5)CC4)c4c3OCCO4)nc(NC3CC3)c12 [Example 141, 4-(cyclopropylamino)-2-((8-(4-morpholinopiperidine-1-carbonyl)-2,3-dihydrobenzo[b][1,4]dioxin-5-yl)amino)-7H-pyrrolo[2,3-d]pyrimidine-5-carbonitrile] | < 100 | 301 to 1000 | < 100 | < 100 | – | – | – |
| CCCCNc1nc(Nc2ccc(C(=O)N3CCOCC3)c3c2OCCO3)nc2[nH]cc(C#N)c12 [Example 134, 4-(butylamino)-2-((8-(morpholine-4-carbonyl)-2,3-dihydrobenzo[b][1,4]dioxin-5-yl)amino)-7H-pyrrolo[2,3-d]pyrimidine-5-carbonitrile] | 301 to 1000 | 301 to 1000 | < 100 | < 100 | – | – | – |
| COCCNc1nc(Nc2ccc(C(=O)N3CCOCC3)c3c2OCCO3)nc2[nH]cc(C(F)(F)F)c12 [Example 168, (8-((4-((2-methoxyethyl)amino)-5-(trifluoromethyl)-7H-pyrrolo[2,3-d]pyrimidin-2-yl)amino)-2,3-dihydrobenzo[b][1,4]dioxin-5-yl)(morpholino)methanone] | < 100 | < 100 | < 100 | < 100 | – | – | – |
| CNc1nc(Nc2ccc(C(=O)N3CCOCC3)c3c2OCCO3)nc2[nH]ccc12 [Example 43, (8-((4-(methylamino)-7H-pyrrolo[2,3-d]pyrimidin-2-yl)amino)-2,3-dihydrobenzo[b][1,4]dioxin-5-yl)(morpholino)methanone] | 301 to 1000 | 301 to 1000 | < 100 | < 100 | – | – | – |
| COc1cc(S(C)(=O)=O)ccc1Nc1nc(NC(C)C)c2c(C(F)(F)F)c[nH]c2n1 [Example 166, N^4-isopropyl-N^2-(2-methoxy-4-(methylsulfonyl)-phenyl)-5-(trifluoromethyl)-7H-pyrrolo[2,3-d]pyrimidine-2,4-diamine] | 301 to 1000 | 301 to 1000 | 101 to 300 | < 100 | – | – | – |
| COc1cc(S(C)(=O)=O)ccc1Nc1nc(NC2CCCCC2)c2c(C#N)c[nH]c2n1 [Example 107, 4-(cyclohexylamino)-2-((2-methoxy-4-(methylsulfonyl)phenyl)amino)-7H-pyrrolo[2,3-d]pyrimidine-5-carbonitrile] | 301 to 1000 | 301 to 1000 | 301 to 1000 | 301 to 1000 | – | – | – |
| CC(C)Nc1nc(Nc2ccc(C(=O)N3CCOCC3)c3c2OCCO3)nc2[nH]cc(C#N)c12 [Example 122, 4-(isopropylamino)-2-((8-(morpholine-4-carbonyl)-2,3-dihydrobenzo[b][1,4]dioxin-5-yl)amino)-7H-pyrrolo[2,3-d]pyrimidine-5-carbonitrile] | < 100 | 101 to 300 | < 100 | < 100 | – | – | – |
| CNc1nc(Nc2ccc(S(=O)(=O)N3CCC(N4CCOCC4)CC3)cc2OC)nc2[nH]cc(C#N)c12 [Example 81, 2-((2-methoxy-4-((4-morpholinopiperidin-1-yl)sulfonyl)phenyl)amino)-4-(methylamino)-7H-pyrrolo[2,3-d]pyrimidine-5-carbonitrile] | < 100 | 301 to 1000 | < 100 | < 100 | – | – | – |
| CCCNc1nc(Nc2ccc(C(=O)N3CCOCC3)c3c2OCCO3)nc2[nH]cc(C(F)(F)F)c12 [Example 162, morpholino(8-((4-(propylamino)-5-(trifluoromethyl)-7H-pyrrolo[2,3-d]pyrimidin-2-yl)amino)-2,3-dihydrobenzo[b][1,4]dioxin-5-yl)methanone] | 301 to 1000 | 301 to 1000 | < 100 | < 100 | – | – | – |
| CNc1nc(Nc2ccc(C(=O)N3CCC(N4CCOCC4)CC3)c3c2OCCO3)nc2[nH]cc(C#N)c12 [Example 136, 4-(methylamino)-2-((8-(4-morpholinopiperidine-1-carbonyl)-2,3-dihydrobenzo[b][1,4]dioxin-5-yl)amino)-7H-pyrrolo[2,3-d]pyrimidine-5-carbonitrile] | < 100 | 101 to 300 | < 100 | < 100 | – | – | – |
